From the supplement of paper PMC12490022
± gives the uncertainty stated by the source.

What follows are compounds tested on ozone (assay: apparent second-order rate constant for reaction with ozone (kapp,O3) (M-1 s-1); higher = faster oxidation by ozone). Details: pH 7; temperature: 22 C; OH radical scavenger: tBuOH 80 mM; phosphate 4 mM.
Protocol: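 Apparent second-order rate constants for reaction with ozone at pH 7 were determined by multicompound competition kinetics. Mixtures of targets and competitors (10 ug/L each) were ozonated in 4 mM phosphate buffer, pH 7, with 80 mM tBuOH as OH-radical scavenger, at 22 ± 1 °C. Peak-area abatement was measured by HPLC-HRMS/MS and k was derived from ln-ln slopes against competitors with known k (R2 > 0.9, >= 10 points, slope 0.1-10). Experiments were run in triplicate on 3 days; the value is the mean over valid competitors ± SD.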

Row | SMILES | apparent second-order rate constant
1 | CNCCCC(C#N)(c1ccc(OC)c(OC)c1)C(C)C (configuration not stated) | 2300 ± 200
2 | Cn1c(=O)[nH]c2[nH]c(=O)n(C)c2c1=O [1,7-Dimethyluric acid] | 6.6e+07 ± 1.4e+07
3 | Clc1cccc(N2CCNCC2)c1 [1-(3-Chlorophenyl)piperazine] | 2.1e+06 ± 400000
4 | Clc1ccc(C(c2ccccc2)N2CCNCC2)cc1 (configuration not stated) [1-(4-Chlorobenzhydryl)piperazine] | 7700 ± 630
5 | CC(C(=O)O)c1ccc(C(O)C(C)C)cc1 (configuration not stated) [1-Hydroxyibuprofen] | 14.7 ± 1.6
6 | CN1CCN2c3ncccc3Cc3ccccc3C2C1=O (configuration not stated) [1-Oxo-mirtazapine] | 64000 ± 14000
7 | O=c1ccn(C2OC(CO)C(O)C2(F)F)c(=O)[nH]1 (configuration not stated) [2'-Deoxy-2',2'-difluorouridine] | 562 ± 27
8 | CC=C1N(C)C(C)CC1(c1ccccc1)c1ccccc1 (configuration not stated) [2-Ethylidene-1,5-dimethyl-3,3-diphenylpyrrolidine (EDDP)] | 99000 ± 18000
9 | Cc1cc(=O)[nH]c2c1NC(=O)c1cccnc1N2C1CC1 [2-Hydroxynevirapine] | 1.56e+07 ± 1.2e+06
10 | CC(CN(C)C)CN1c2ccccc2CCc2cc(O)ccc21 (configuration not stated) [2-Hydroxytrimipramine] | 8.7e+07 ± 1.9e+07
11 | Nc1c(I)c(N)c(I)c(C(=O)O)c1I [3,5-Diamino-2,4,6-triiodobenzoic acid] | 1.02e+07 ± 700000
12 | N[C@@H](Cc1cc(I)c(O)c(I)c1)C(=O)O [3,5-Diiodo-L-tyrosine] | 2.87e+06 ± 220000
13 | COc1cc(Cc2cnc(N)nc2N)cc(O)c1OC [3-Desmethyltrimethoprim] | 1.17e+07 ± 900000
14 | Oc1cnc2c(c1)CCc1cc(Cl)ccc1C2=C1CCNCC1 [3-Hydroxydesloratadine] | 6.3e+07 ± 1.4e+07
15 | Cc1c(CO)cccc1Nc1ccccc1C(=O)O [3-Hydroxymethylmefenamic acid] | 9.3e+07 ± 2e+07
16 | O=C(O)CCNC(=O)c1ccc(Cl)cc1 [3-[(4-Chlorobenzoyl)amino]propanoic acid] | 0.194 ± 0.008
17 | O=C(O)Cc1ccccc1Nc1c(Cl)cc(O)cc1Cl [4'-Hydroxydiclofenac] | 6.95 ± 0.38
18 | COc1c(CSc2nc3ccc(OC(F)F)cc3[nH]2)[nH]ccc1=O [4'-O-Demethyl-pantoprazole sulfide] | 21000 ± 2000
19 | Nc1cc(Cl)c(S(N)(=O)=O)cc1S(N)(=O)=O [4-Amino-6-chlorobenzene-1,3-disulfonamide] | 90.5 ± 4.7
20 | Cc1c(N)c(=O)n(-c2ccccc2)n1C [4-Aminoantipyrine] | 294000 ± 26000
21 | O=C(c1ccccc1)c1ccc(Cl)cc1 [4-Chlorobenzophenone] | 0.58 ± 0.04
22 | COc1cc(Cc2cnc(N)nc2N)cc(OC)c1O [4-Desmethyltrimethoprim] | 3.6e+07 ± 86
23 | Cc1c(NC=O)c(=O)n(-c2ccccc2)n1C [4-Formylaminoantipyrine] | 61000 ± 14000

Row | SMILES | apparent second-order rate constant
24 | CC(N)Cc1ccc(O)cc1 (configuration not stated) [4-Hydroxyamphetamine] | 2.48e+06 ± 220000
25 | Oc1ccc(C(F)(F)F)cc1 [4-Trifluoromethylphenol] | 1.43e+06 ± 150000
26 | Nc1[nH]c(=O)ncc1F [5-Fluorocytosine] | 24300 ± 2500
27 | O=C(O)Cc1cc(O)ccc1Nc1c(Cl)cccc1Cl [5-Hydroxydiclofenac] | 6.4e+07 ± 1.4e+07
28 | Nc1ccc(S(=O)(=O)Nc2ccc(O)cn2)cc1 [5-Hydroxysulfapyridine] | 1.6e+08 ± 3e+07
29 | CC(=O)OC1C=CC2C3Cc4ccc(O)c5c4C2(CCN3C)C1O5 (configuration not stated) [6-Acetylmorphine] | 1.29e+07 ± 1.1e+06
30 | C/C(=C\Cc1c(O)c(C)c2c(c1O)C(=O)OC2)CCC(=O)O [6-O-Desmethyl mycophenolic acid] | 9.2e+07 ± 2e+07
31 | CN1CCN2c3ncc(O)cc3Cc3ccccc3C2C1 (configuration not stated) [8-Hydroxymirtazapine] | 5.4e+07 ± 1.2e+07
32 | O=C1Nc2c(CO)ccnc2N(C2CC2)c2ncccc21 [12-Hydroxynevirapine] | 392 ± 21
33 | Nc1nc(NC2CC2)c2ncn(C3C=CC(CO)C3)c2n1 (configuration not stated) [Abacavir] | 8.8e+06 ± 600000
34 | COc1ccc2c(c1)c(CC(=O)OCC(=O)O)c(C)n2C(=O)c1ccc(Cl)cc1 [Acemethacin] | 1.04e+06 ± 86000
35 | COCCCOc1cc(CC(CC(N)C(O)CC(C(=O)NCC(C)(C)C(N)=O)C(C)C)C(C)C)ccc1OC (configuration not stated) [Aliskiren] | 22000 ± 5000
36 | O=c1ncnc2[nH][nH]cc1-2 [Allopurinol] | 3.9 ± 0.4
37 | CC[N+]1([O-])CCCC1CNC(=O)c1cc(S(=O)(=O)CC)c(N)cc1OC (configuration not stated) [Amisulpride-N-oxide] | 1190 ± 100
38 | CCN1CCCC1CNC(=O)c1cc(S(=O)(=O)CC)c(N)cc1OC (configuration not stated) [Amisulpride] | 18000 ± 1600
39 | CCOC(=O)C1=C(COCCN)NC(C)=C(C(=O)OC)C1c1ccccc1Cl (configuration not stated) [Amlodipine] | 9.9e+07 ± 2.2e+07
40 | CC1(C)SC(CNC(=O)C(N)c2ccc(O)cc2)NC1C(=O)O (configuration not stated) [Amoxicillin impurity E] | 9e+06 ± 1.9e+06
41 | O=C1C=CC(=C2NC=CNC2=O)C=C1 [Amoxicillin impurity F] | 3.75e+06 ± 540000
42 | CC1(C)SC2C(NC(=O)C(N)c3ccc(O)cc3)C(=O)N2C1C(=O)O (configuration not stated) [Amoxicillin] | 2.2e+06 ± 190000
43 | CC(N)Cc1ccccc1 (configuration not stated) [Amphetamine] | 34 ± 4
44 | COC(=O)C1=CCC2CCC1N2C (configuration not stated) [Anhydroecgonine methyl ester] | 44000 ± 10000
45 | CC(C)NCC(O)COc1ccc(CC(=O)O)cc1 (configuration not stated) [Atenolol acid] | 845 ± 57
46 | CC(C)NCC(O)COc1ccc(CC(N)=O)cc1 (configuration not stated) [Atenolol] | 1580 ± 72

Row | SMILES | apparent second-order rate constant
47 | CC(C)c1c(C(=O)Nc2ccccc2)c(-c2ccccc2)c(-c2ccc(F)cc2)n1CCC(O)CC(O)CC(=O)O (configuration not stated) [Atorvastatin] | 1.5e+08 ± 3e+07
48 | CC[C@H]1OC(=O)[C@H](C)[C@@H](O[C@H]2C[C@@](C)(OC)[C@@H](O)[C@H](C)O2)[C@H](C)[C@@H](O[C@@H]2O[C@H](C)C[C@H]([N+](C)(C)[O-])[C@H]2O)[C@](C)(O)C[C@@H](C)CN(C)[C@H](C)[C@@H](O)[C@]1(C)O [Azithromycin-N-oxide] | 1150 ± 74
49 | CCC1OC(=O)C(C)C(OC2CC(C)(OC)C(O)C(C)O2)C(C)C(OC2OC(C)CC(N(C)C)C2O)C(C)(O)CC(C)CN(C)C(C)C(O)C1(C)O (configuration not stated) [Azithromycin] | 72000 ± 17000
50 | O=C(c1ccccc1)c1ccccc1 [Benzophenone] | < 0.401
51 | CN1C2CCC1C(C(=O)O)C(OC(=O)c1ccccc1)C2 (configuration not stated) [Benzoylecgonine] | 11.3 ± 1.2
52 | CC(=O)OCC(=O)[C@@]1(O)[C@@H](C)C[C@H]2[C@@H]3CCC4=CC(=O)C=C[C@]4(C)[C@@]3(F)[C@@H](O)C[C@@]21C [Betamethasone-21-acetate] | 24.4 ± 1.3
53 | CC1CC2C3CCC4=CC(=O)C=CC4(C)C3(F)C(O)CC2(C)C1(O)C(=O)CO (configuration not stated) [Betamethasone] | 35.8 ± 1.8
54 | CC(=O)Oc1ccc(C(c2ccc(OC(C)=O)cc2)c2ccccn2)cc1 [Bisacodyl] | 2.6 ± 0.3
55 | CC(NC(C)(C)C)C(=O)c1cccc(Cl)c1 (configuration not stated) [Bupropion] | 315 ± 15
56 | NC(=O)N1c2ccccc2C2OC2c2ccccc21 (configuration not stated) [Carbamazepine-10,11-epoxide] | < 0.401
57 | CC(Cc1ccc(C(C)C(=O)O)cc1)C(=O)O (configuration not stated) [Carboxyibuprofen] | 11.8 ± 1.3
58 | O=C(O)COCC[N+]1([O-])CCN(C(c2ccccc2)c2ccc(Cl)cc2)CC1 (configuration not stated) [Cetirizine-N-oxide] | 5670 ± 460
59 | O=C(O)COCCN1CCN(C(c2ccccc2)c2ccc(Cl)cc2)CC1 (configuration not stated) [Cetirizine] | 359000 ± 31000
60 | NS(=O)(=O)c1cc2c(cc1Cl)NC=NS2(=O)=O [Chlorothiazide] | 1.57 ± 0.17
61 | CN(C)CCCC1(c2ccc(F)cc2)OCc2cc(C#N)ccc21 (configuration not stated) [Citalopram] | 12600 ± 1100
62 | CC[C@H]1OC(=O)[C@H](C)[C@@H](O[C@H]2C[C@@](C)(OC)[C@@H](O)[C@H](C)O2)[C@H](C)[C@@H](O[C@@H]2O[C@H](C)C[C@H]([N+](C)(C)[O-])[C@H]2O)[C@](C)(OC)C[C@@H](C)C(=O)[C@H](C)[C@@H](O)[C@]1(C)O [Clarithromycin-N-oxide] | < 0.401
63 | CCC1OC(=O)C(C)C(OC2CC(C)(OC)C(O)C(C)O2)C(C)C(OC2OC(C)CC(N(C)C)C2O)C(C)(OC)CC(C)C(=O)C(C)C(O)C1(C)O (configuration not stated) [Clarithromycin] | 65000 ± 15000
64 | CCCC1CC(C(=O)NC(C(C)Cl)C2OC(S(C)=O)C(O)C(O)C2O)N(C)C1 (configuration not stated) [Clindamycin-sulfoxide] | 336000 ± 30000
65 | CCCC1CC(C(=O)NC(C(C)Cl)C2OC(SC)C(O)C(O)C2O)N(C)C1 (configuration not stated) [Clindamycin] | 749000 ± 65000
66 | CC(C)(Oc1ccc(Cl)cc1)C(=O)O [Clofibric acid] | 23 ± 3
67 | O=C(O)C(c1ccccc1Cl)N1CCc2sccc2C1 (configuration not stated) [Clopidogrel carboxylic acid] | 175000 ± 14000
